Experimental data: patent US20060204457A1, “Cosmetic uv-screen compositions and aminobutadiene-based uv-absorbing complexes therefor” (priority 2003, published 2006)

Assay: Dye stability under Xenon test conditions; UV absorption after Xenon exposure
Assay type: physicochemical
Conditions: thin layer on TAC base
Description: Measurements are carried out at the Ci 4000 Xenon Weather-Ometer of Atlas Electric Devices Company. The extinction wavelength spectrum represents sunlight spectrum. Experiments are carried out with samples consisting of thin layers of UV absorbing complexes coated on TAC base materials, and dryed under air before Xenon radiation was started.
Solutions for coating on the TAC sheet materials are prepared by making a 5% gelatin solution of UV-gelatin in a suitable solvent (water/ethanol 50:50) for 30 minutes at a temperature of 40 C.
A fixed concentration of the UV absorbing complex was applied with a concentration of 5*10^−3 Mol/L
UV absorption of samples is measured with standard UV spectrophotometer system. UV absorption is directly correlated to the number of functional molecules in the samples after the Xenon treatment, and the results are listed in the following table.
UV absorption after Xenon radiation (in hours treatment time).

UV absorption after Xenon radiation (0 hours treatment time): 0.85
UV absorption after Xenon radiation (40 hours treatment time): 0.53
UV absorption after Xenon radiation (80 hours treatment time): 0.20
UV absorption after Xenon radiation (120 hours treatment time): 0.14
SMILES: O=c1c(O)c(-c2ccc(O)c(O)c2)oc2cc(O)cc(O)c12 [Quercetin]
